The values that follow are results of earlier work, collected in patent US20050070514A1, “Therapies for treating respiratory diseases” (priority 2001, published 2005).

For the data set the following is noted: developed as an antidepressant.

In the case of `COc1ccc(C2CNC(=O)C2)cc1OC1CCCC1` (stereo not shown) [rolipram], the “side effects in clinical studies” value is “has psychotropic activity and produces gastrointestinal effects, e.g., pyrosis, nausea and emesis”.
